Experimental data reported in publication PMC6009956, “Design, synthesis and biological activity of N^4-phenylsubstituted-7H-pyrrolo[2,3-d]pyrimidin-4-amines as dual inhibitors of aurora kinase A and epidermal growth factor receptor kinase” (Journal of Enzyme Inhibition and Medicinal Chemistry, 2017).
Where two headings read alike, the source gives them in different places.

How the values were obtained:
aurora A kinase (AURKA) = biological target: T1, aurora A kinase (AURKA) (Homo sapiens, UniProt O14965); assay: ADP-Glo kinase assay, Aurora A; format: biochemical
T1 construct: purchased BPS Bioscience (assay run externally by the vendor)
T1 sequence (O14965 1-403): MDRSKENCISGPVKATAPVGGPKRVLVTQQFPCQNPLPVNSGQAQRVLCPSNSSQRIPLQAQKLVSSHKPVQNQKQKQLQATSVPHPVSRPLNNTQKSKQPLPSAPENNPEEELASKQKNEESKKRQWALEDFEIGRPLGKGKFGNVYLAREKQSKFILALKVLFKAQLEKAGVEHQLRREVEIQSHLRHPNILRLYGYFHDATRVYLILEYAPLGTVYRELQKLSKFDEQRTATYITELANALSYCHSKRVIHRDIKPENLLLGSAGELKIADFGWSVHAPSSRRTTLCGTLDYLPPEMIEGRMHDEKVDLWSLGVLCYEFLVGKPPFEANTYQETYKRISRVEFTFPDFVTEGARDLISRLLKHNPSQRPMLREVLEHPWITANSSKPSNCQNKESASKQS

EGFR = EGFR (Homo sapiens, UniProt P00533); assay: ADP-Glo kinase assay, EGFR; format: biochemical; design: purchased BPS Bioscience (assay run externally by the vendor)
Sequence of EGFR (P00533 25-1210): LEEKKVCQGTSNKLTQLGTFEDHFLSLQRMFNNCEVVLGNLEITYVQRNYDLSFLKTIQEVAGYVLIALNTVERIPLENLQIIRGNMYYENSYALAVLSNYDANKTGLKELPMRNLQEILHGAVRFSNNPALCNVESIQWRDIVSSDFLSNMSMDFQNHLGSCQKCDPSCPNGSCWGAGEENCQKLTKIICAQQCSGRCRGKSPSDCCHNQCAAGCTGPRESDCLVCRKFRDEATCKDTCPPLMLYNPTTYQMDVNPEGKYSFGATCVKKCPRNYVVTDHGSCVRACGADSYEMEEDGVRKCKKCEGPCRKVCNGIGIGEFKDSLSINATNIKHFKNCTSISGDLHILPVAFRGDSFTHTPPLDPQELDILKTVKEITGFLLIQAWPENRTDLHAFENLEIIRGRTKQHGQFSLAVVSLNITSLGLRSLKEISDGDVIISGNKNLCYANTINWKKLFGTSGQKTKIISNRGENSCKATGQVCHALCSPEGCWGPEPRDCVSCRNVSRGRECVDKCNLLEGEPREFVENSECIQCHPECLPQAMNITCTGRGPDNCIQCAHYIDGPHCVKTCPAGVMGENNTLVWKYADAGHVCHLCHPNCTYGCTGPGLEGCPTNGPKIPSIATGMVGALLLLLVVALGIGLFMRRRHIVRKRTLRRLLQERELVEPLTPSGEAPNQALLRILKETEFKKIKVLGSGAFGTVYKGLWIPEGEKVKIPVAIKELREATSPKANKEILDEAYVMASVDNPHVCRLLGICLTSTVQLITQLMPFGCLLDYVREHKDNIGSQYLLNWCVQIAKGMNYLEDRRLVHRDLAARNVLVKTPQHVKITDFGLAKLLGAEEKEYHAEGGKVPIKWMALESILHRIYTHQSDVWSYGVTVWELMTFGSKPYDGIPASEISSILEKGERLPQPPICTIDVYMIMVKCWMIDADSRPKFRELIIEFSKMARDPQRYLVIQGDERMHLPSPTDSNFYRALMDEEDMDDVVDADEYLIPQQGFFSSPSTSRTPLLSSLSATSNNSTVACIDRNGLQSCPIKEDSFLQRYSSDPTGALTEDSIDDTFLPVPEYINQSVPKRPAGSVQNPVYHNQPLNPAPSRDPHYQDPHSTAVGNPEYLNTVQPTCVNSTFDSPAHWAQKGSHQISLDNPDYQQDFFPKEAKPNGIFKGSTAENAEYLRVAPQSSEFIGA

[1] = 10 µM ATP, triplicate, read-out: AURKA IC50 ± SD
[2] = 10 µM ATP/0.2 mg/ml Kemptide, read-out: Aurora A IC50 (dose-response curve, supplement)
[3] = 10 µM ATP, triplicate, read-out: EGFR IC50 ± SD
[4] = 10 µM ATP/0.2 mg/ml Poly-Glu-Tyr, read-out: EGFR IC50 (dose-response curve, supplement)

Clc1ccc(Nc2ncnc3[nH]ccc23)cc1Br [Compound 7, N^4-(3-bromo, 4-chlorophenyl)-7H-pyrrolo[2,3-d]pyrimidine-4-amine]
IC50 (aurora A kinase (AURKA); [1]): 3.23 ± 0.31 µM | IC50 (aurora A kinase (AURKA); [2]): 3.3 µM | Aurora A % Activity Set1 (aurora A kinase (AURKA); Log[nM] 0): 95% | Aurora A % Activity Set2 (aurora A kinase (AURKA); Log[nM] 0): 102% | Aurora A % Activity Set3 (aurora A kinase (AURKA); Log[nM] 0): 95% | Aurora A % Activity Set1 (aurora A kinase (AURKA); Log[nM] 1.0): 100% | Aurora A % Activity Set2 (aurora A kinase (AURKA); Log[nM] 1.0): 103% | Aurora A % Activity Set3 (aurora A kinase (AURKA); Log[nM] 1.0): 99% | Aurora A % Activity Set1 (aurora A kinase (AURKA); Log[nM] 1.5): 100% | Aurora A % Activity Set2 (aurora A kinase (AURKA); Log[nM] 1.5): 103% | Aurora A % Activity Set3 (aurora A kinase (AURKA); Log[nM] 1.5): 103% | Aurora A % Activity Set1 (aurora A kinase (AURKA); Log[nM] 2.0): 100% | Aurora A % Activity Set2 (aurora A kinase (AURKA); Log[nM] 2.0): 106% | Aurora A % Activity Set3 (aurora A kinase (AURKA); Log[nM] 2.0): 105% | Aurora A % Activity Set1 (aurora A kinase (AURKA); Log[nM] 2.5): 95% | Aurora A % Activity Set2 (aurora A kinase (AURKA); Log[nM] 2.5): 97% | Aurora A % Activity Set3 (aurora A kinase (AURKA); Log[nM] 2.5): 95% | Aurora A % Activity Set1 (aurora A kinase (AURKA); Log[nM] 3.0): 95% | Aurora A % Activity Set2 (aurora A kinase (AURKA); Log[nM] 3.0): 103% | Aurora A % Activity Set3 (aurora A kinase (AURKA); Log[nM] 3.0): 93% | Aurora A % Activity Set1 (aurora A kinase (AURKA); Log[nM] 3.5): 40% | Aurora A % Activity Set2 (aurora A kinase (AURKA); Log[nM] 3.5): 40% | Aurora A % Activity Set3 (aurora A kinase (AURKA); Log[nM] 3.5): 37% | Aurora A % Activity Set1 (aurora A kinase (AURKA); Log[nM] 4.0): 16% | Aurora A % Activity Set2 (aurora A kinase (AURKA); Log[nM] 4.0): 16% | Aurora A % Activity Set3 (aurora A kinase (AURKA); Log[nM] 4.0): 15% | Aurora A % Activity Set1 (aurora A kinase (AURKA); Log[nM] 4.5): 31% | Aurora A % Activity Set2 (aurora A kinase (AURKA); Log[nM] 4.5): 30% | Aurora A % Activity Set3 (aurora A kinase (AURKA); Log[nM] 4.5): 30% | Aurora A % Activity Set1 (aurora A kinase (AURKA); Log[nM] 5.0): 17% | Aurora A % Activity Set2 (aurora A kinase (AURKA); Log[nM] 5.0): 15% | Aurora A % Activity Set3 (aurora A kinase (AURKA); Log[nM] 5.0): 16% | EGFR inhibition (in words) (EGFR): single-digit nanomolar EGFR inhibition | IC50 (EGFR; [3]): 0.00363 ± 0.00043 µM | IC50 (EGFR; [4]): 0.0036 µM | EGFR % Activity Set1 (EGFR; Log[nM] 0): 44% | EGFR % Activity Set2 (EGFR; Log[nM] 0): 50% | EGFR % Activity Set3 (EGFR; Log[nM] 0): 53% | EGFR % Activity Set1 (EGFR; Log[nM] 1.0): 18% | EGFR % Activity Set2 (EGFR; Log[nM] 1.0): 17% | EGFR % Activity Set3 (EGFR; Log[nM] 1.0): 20% | EGFR % Activity Set1 (EGFR; Log[nM] 1.5): 12% | EGFR % Activity Set2 (EGFR; Log[nM] 1.5): 13% | EGFR % Activity Set3 (EGFR; Log[nM] 1.5): 15% | EGFR % Activity Set1 (EGFR; Log[nM] 2.0): 4% | EGFR % Activity Set2 (EGFR; Log[nM] 2.0): 5% | EGFR % Activity Set3 (EGFR; Log[nM] 2.0): 4% | EGFR % Activity Set1 (EGFR; Log[nM] 2.5): 3% | EGFR % Activity Set2 (EGFR; Log[nM] 2.5): 3% | EGFR % Activity Set3 (EGFR; Log[nM] 2.5): 3% | EGFR % Activity Set1 (EGFR; Log[nM] 3.0): 1% | EGFR % Activity Set2 (EGFR; Log[nM] 3.0): 2% | EGFR % Activity Set3 (EGFR; Log[nM] 3.0): 2% | EGFR % Activity Set1 (EGFR; Log[nM] 3.5): 1% | EGFR % Activity Set2 (EGFR; Log[nM] 3.5): 1% | EGFR % Activity Set3 (EGFR; Log[nM] 3.5): 0% | EGFR % Activity Set1 (EGFR; Log[nM] 4.0): 0% | EGFR % Activity Set2 (EGFR; Log[nM] 4.0): 0% | EGFR % Activity Set3 (EGFR; Log[nM] 4.0): 0% | EGFR % Activity Set1 (EGFR; Log[nM] 4.5): 1% | EGFR % Activity Set2 (EGFR; Log[nM] 4.5): 1% | EGFR % Activity Set3 (EGFR; Log[nM] 4.5): 1% | EGFR % Activity Set1 (EGFR; Log[nM] 5.0): 0% | EGFR % Activity Set2 (EGFR; Log[nM] 5.0): 0% | EGFR % Activity Set3 (EGFR; Log[nM] 5.0): 0%

COc1ccc(Nc2ncnc3[nH]ccc23)cc1 [Compound 6, N^4-(4-methoxyphenyl)-7H-pyrrolo[2,3-d]pyrimidine-4-amine]
IC50 (aurora A kinase (AURKA); [1]): 6.68 ± 0.54 µM | IC50 (aurora A kinase (AURKA); [2]): 6.7 µM | Aurora A % Activity Set1 (aurora A kinase (AURKA); Log[nM] 0): 104% | Aurora A % Activity Set2 (aurora A kinase (AURKA); Log[nM] 0): 94% | Aurora A % Activity Set3 (aurora A kinase (AURKA); Log[nM] 0): 88% | Aurora A % Activity Set1 (aurora A kinase (AURKA); Log[nM] 1.0): 95% | Aurora A % Activity Set2 (aurora A kinase (AURKA); Log[nM] 1.0): 89% | Aurora A % Activity Set3 (aurora A kinase (AURKA); Log[nM] 1.0): 91% | Aurora A % Activity Set1 (aurora A kinase (AURKA); Log[nM] 1.5): 111% | Aurora A % Activity Set2 (aurora A kinase (AURKA); Log[nM] 1.5): 100% | Aurora A % Activity Set3 (aurora A kinase (AURKA); Log[nM] 1.5): 110% | Aurora A % Activity Set1 (aurora A kinase (AURKA); Log[nM] 2.0): 100% | Aurora A % Activity Set2 (aurora A kinase (AURKA); Log[nM] 2.0): 95% | Aurora A % Activity Set3 (aurora A kinase (AURKA); Log[nM] 2.0): 96% | Aurora A % Activity Set1 (aurora A kinase (AURKA); Log[nM] 2.5): 108% | Aurora A % Activity Set2 (aurora A kinase (AURKA); Log[nM] 2.5): 100% | Aurora A % Activity Set3 (aurora A kinase (AURKA); Log[nM] 2.5): 106% | Aurora A % Activity Set1 (aurora A kinase (AURKA); Log[nM] 3.0): 88% | Aurora A % Activity Set2 (aurora A kinase (AURKA); Log[nM] 3.0): 91% | Aurora A % Activity Set3 (aurora A kinase (AURKA); Log[nM] 3.0): 84% | Aurora A % Activity Set1 (aurora A kinase (AURKA); Log[nM] 3.5): 86% | Aurora A % Activity Set2 (aurora A kinase (AURKA); Log[nM] 3.5): 80% | Aurora A % Activity Set3 (aurora A kinase (AURKA); Log[nM] 3.5): 76% | Aurora A % Activity Set1 (aurora A kinase (AURKA); Log[nM] 4.0): 30% | Aurora A % Activity Set2 (aurora A kinase (AURKA); Log[nM] 4.0): 33% | Aurora A % Activity Set3 (aurora A kinase (AURKA); Log[nM] 4.0): 27% | Aurora A % Activity Set1 (aurora A kinase (AURKA); Log[nM] 4.5): 14% | Aurora A % Activity Set2 (aurora A kinase (AURKA); Log[nM] 4.5): 14% | Aurora A % Activity Set3 (aurora A kinase (AURKA); Log[nM] 4.5): 13% | Aurora A % Activity Set1 (aurora A kinase (AURKA); Log[nM] 5.0): 8% | Aurora A % Activity Set2 (aurora A kinase (AURKA); Log[nM] 5.0): 6% | Aurora A % Activity Set3 (aurora A kinase (AURKA); Log[nM] 5.0): 4% | EGFR inhibition (in words) (EGFR): micromolar EGFR inhibition | Fold better for EGFR over AURKA (EGFR): 2 fold | Fold less potent than staurosporine against EGFR (EGFR): seven-fold | IC50 (EGFR; [3]): 2.94 ± 0.0944 µM | IC50 (EGFR; [4]): 3 µM | EGFR % Activity Set1 (EGFR; Log[nM] 0): 98% | EGFR % Activity Set2 (EGFR; Log[nM] 0): 102% | EGFR % Activity Set3 (EGFR; Log[nM] 0): 105% | EGFR % Activity Set1 (EGFR; Log[nM] 1.0): 102% | EGFR % Activity Set2 (EGFR; Log[nM] 1.0): 110% | EGFR % Activity Set3 (EGFR; Log[nM] 1.0): 108% | EGFR % Activity Set1 (EGFR; Log[nM] 1.5): 105% | EGFR % Activity Set2 (EGFR; Log[nM] 1.5): 106% | EGFR % Activity Set3 (EGFR; Log[nM] 1.5): 108% | EGFR % Activity Set1 (EGFR; Log[nM] 2.0): 99% | EGFR % Activity Set2 (EGFR; Log[nM] 2.0): 102% | EGFR % Activity Set3 (EGFR; Log[nM] 2.0): 104% | EGFR % Activity Set1 (EGFR; Log[nM] 2.5): 96% | EGFR % Activity Set2 (EGFR; Log[nM] 2.5): 93% | EGFR % Activity Set3 (EGFR; Log[nM] 2.5): 97% | EGFR % Activity Set1 (EGFR; Log[nM] 3.0): 72% | EGFR % Activity Set2 (EGFR; Log[nM] 3.0): 79% | EGFR % Activity Set3 (EGFR; Log[nM] 3.0): 78% | EGFR % Activity Set1 (EGFR; Log[nM] 3.5): 43% | EGFR % Activity Set2 (EGFR; Log[nM] 3.5): 48% | EGFR % Activity Set3 (EGFR; Log[nM] 3.5): 43% | EGFR % Activity Set1 (EGFR; Log[nM] 4.0): 23% | EGFR % Activity Set2 (EGFR; Log[nM] 4.0): 24% | EGFR % Activity Set3 (EGFR; Log[nM] 4.0): 22% | EGFR % Activity Set1 (EGFR; Log[nM] 4.5): 8% | EGFR % Activity Set2 (EGFR; Log[nM] 4.5): 9% | EGFR % Activity Set3 (EGFR; Log[nM] 4.5): 8% | EGFR % Activity Set1 (EGFR; Log[nM] 5.0): 4% | EGFR % Activity Set2 (EGFR; Log[nM] 5.0): 4% | EGFR % Activity Set3 (EGFR; Log[nM] 5.0): 4%
